The source made the active and inactive calls. How the calls were made is not given here.
Assay: Cytotoxicity activity against human HepG2 cells assessed by CellTiter-Glo luminescent cell viability assay.
Format: toxicity, cell-based
Design: assay stage confirmatory assay, source tissue liver
Settings: HepG2 cells, read-out: IC50 relative

Row | Compound | CC50
1 | CN1CCC(c2c[nH]c3ccc(NC(=O)c4ccc(F)cc4)cc23)CC1 | 14.2 µM (inactive)
2 | O=C(O)c1ccc2c3c1cccc3c(=O)n1c3ccccc3nc21 | 3.3 µM (active)
3 | O=C(NC(NC(=S)Nc1ccc(F)c([N+](=O)[O-])c1)C(Cl)(Cl)Cl)C(c1ccccc1)c1ccccc1 (stereo not given) | 6.3 µM (active)
4 | Cc1c(C(=O)c2cccc3ccccc23)c2cccc3c2n1[C@H](CN1CCOCC1)CO3 | 3.2 µM (active)
5 | COc1cc(/C=C2\CCCN([C@@H](C)c3ccc(F)cc3)C2=O)ccc1-n1cnc(C)c1 | 12.8 µM (active)
6 | C=CC(=O)Nc1cccc(Oc2nc(Nc3ccc(N4CCN(C)CC4)cc3OC)ncc2Cl)c1 | 2.2 µM (active)
7 | COc1cc(N2CCC(O)CC2)ccc1Nc1cc(Nc2ccccc2S(=O)(=O)C(C)C)c2cc[nH]c2n1 | 12.9 µM (active)
8 | O=C(NCCO)c1cccc(-c2cc(Nc3ccc(OC(F)(F)F)cc3)ncn2)c1 | 19.4 µM (inactive)
9 | C[C@]12CCC(=O)C=C1CC[C@@H]1[C@@H]2CC[C@]2(C)C(c3cccnc3)=CC[C@@H]12 | 28 µM (inactive)
10 | c1ccc(CCCN2CCN(CCOC(c3ccccc3)c3ccccc3)CC2)cc1 | 9.1 µM (active)
11 | Cc1ccc2c(c1)C1(CCN(CCc3nc(-c4ccccc4)oc3C)CC1)OC(=O)N2 | 11.2 µM (active)
12 | Cc1csc(NC(=O)CSc2ccc(-c3ccccc3)nn2)n1 | 14.7 µM (inactive)
13 | Cn1cc(C2=C(c3cn(CCCSC(=N)N)c4ccccc34)C(=O)NC2=O)c2ccccc21 | 1.4 µM (active)
14 | O=C1NCCSc2c1sc1ccc(O)cc21 | 1 µM (active)
15 | CCOC(=O)c1cnc2ccc(-c3cncc(NS(=O)(=O)c4ccccc4)c3)cn12 | 3.8 µM (active)
16 | CNc1nc(-c2ccc3c(N)n[nH]c3c2)cc(N2C[C@@H](C(=O)NC3CCCCC3)CC[C@H]2C)n1 | 50 µM (inactive)
17 | O=c1cc(N2CCOCC2)oc2c(-c3cccc4c3sc3ccccc34)cccc12 | 7.1 µM (active)
18 | COc1cc(C(=O)N2CCC(N3CCN(C)CC3)CC2)ccc1Nc1ncc2c(n1)N(C)c1ccccc1C(=O)N2C | 4.5 µM (active)
19 | COc1cc2c(cc1-c1c(C)noc1C)ncc1[nH]c(=O)n([C@H](C)c3ccccn3)c12 | 1.4 µM (active)
20 | COc1ccc2cc(S(=O)(=O)N[C@H](CC(=O)N[C@H](Cc3ccc(CN4[C@H](C)CCC[C@@H]4C)cc3)C(=O)N(C)C(C)C)c3ccc4c(c3)OCO4)ccc2c1 | 4.1 µM (active)
21 | CC(C)(Cc1ccc2ccccc2c1)NC[C@@H](O)COc1cccc(Cl)c1C#N | 1.3 µM (active)
22 | COc1ccc(N(C(=O)Oc2c(C)cccc2C)c2ccnc(Nc3ccc(N4CCN(C)CC4)cc3)n2)c(OC)c1 | 3.3 µM (active)

Row | Compound | CC50
23 | C[C@@H]1CN(CC(=O)Nc2ccc3c(c2)Cc2cccc(-c4cc(=O)cc(N5CCOCC5)o4)c2S3)C[C@H](C)O1 | 17.8 µM (inactive)
24 | COc1cc2ncnc(-n3nc(-c4ccccn4)nc3N)c2cc1OC | 1.5 µM (active)
25 | Cc1cc(NC(=O)c2cccc(NC(=O)/C=C/CN(C)C)c2)ccc1Nc1nccc(-c2cccnc2)n1 | 3.8 µM (active)
26 | Cc1cccc(-c2[nH]c(C(C)(C)C)nc2-c2ccc3c(c2)OCO3)n1 | 2.8 µM (active)
27 | CN(C)Cc1cccc(N/C(=C2\C(=O)Nc3cc(C(=O)N(C)C)ccc32)c2ccccc2)c1 | 10 µM (active)
28 | O=C(Nc1ccc([N+](=O)[O-])cc1O)Nc1ccccc1Br | 8.9 µM (active)
29 | CN1CCN(Cc2ccc(-c3cnc4[nH]cc(-c5ccc6[nH]ccc6c5)c4c3)cc2)CC1 | 1.4 µM (active)
30 | N#C/C(=C(/N)Sc1ccc(N)cc1)c1ccccc1C(F)(F)F | 8.6 µM (active)
31 | OCCCNc1cc(-c2ccnc(Nc3cccc(Cl)c3)n2)ccn1 | 1.4 µM (active)
32 | CC(C)(C)c1ccc(S(=O)(=O)NCc2ccc(C(=O)Nc3cccnc3)cc2)cc1 | 2.6 µM (active)
33 | O=C(/C=C/c1ccc2ccccc2n1)c1ccncc1 | 1.1 µM (active)
34 | Nc1nc(NCCNc2ncc(-n3ccnc3)c(-c3ccc(Cl)cc3Cl)n2)ccc1[N+](=O)[O-] | 50 µM (inactive)
35 | O=C(NCc1cccc(O)c1)Nc1nc(-c2ccncc2)cs1 | 10.7 µM (inactive)
36 | COc1ccc(C[C@H](NC(=O)[C@H](C)NC(=O)CN2CCOCC2)C(=O)N[C@@H](Cc2ccccc2)C(=O)[C@@]2(C)CO2)cc1 | 0.5 µM (active)
37 | CC(C)(C#N)c1ccc(N2C(=O)OCc3cnc4ccc(-c5cnc6ccccc6c5)cc4c32)cc1 | 7 µM (active)
38 | COc1cccc(-c2cc(F)ccc2[C@H]2Cc3nc(N)nc(C)c3C(=O)N2)n1 | < 0.1 µM (active)
39 | COc1cc(N2CCC(N(C)C)CC2)ccc1Nc1ncc(Cl)c(Nc2ccccc2P(C)(C)=O)n1 | 2.6 µM (active)
40 | COc1cc(N2CCN(C)CC2)ccc1Nc1nccc(-c2cn(C)c3cnccc23)n1 | 4.4 µM (active)
41 | C[C@@H]1CCCN1CCc1cc2cc(-c3ccc(C#N)cc3)ccc2o1 | 6.1 µM (active)
42 | CCCc1cc2c(N3CCN(C4=NCC(C)(C)S4)CC3)ncnc2s1 | 13.7 µM (active)
43 | O=C(Nc1ccc2[nH]nc(-c3ccncc3)c2c1)[C@@H]1CCN(CC(=O)N2CCN(c3ccc(-c4ncccn4)cc3)CC2)C1 | 0.1 µM (active)
44 | CCn1c(=O)c(-c2ccc(Cl)cc2Cl)cc2cnc(Nc3ccc(N4CCNCC4)c(F)c3)nc21 | 1.5 µM (active)

Row | Compound | CC50
45 | CCn1c(=O)c(-c2ccc(-c3cncs3)cc2Cl)cc2cnc(Nc3ccc(N4CCN(C)CC4)cc3)nc21 | 29 µM (inactive)
46 | CC(C)c1cc2c(N3CCN(C4=NCC(C)(C)S4)CC3)ncnc2s1 | 10 µM (active)
47 | Oc1cc(-c2nc(-c3ccccc3)[nH]c2-c2ccncc2)ccc1Cl | 0.6 µM (active)
48 | CCn1cc(-c2cccc(C(F)(F)F)c2)c2sc(C(=N)NC3CCS(=O)(=O)CC3)cc2c1=O | 11.1 µM (active)
49 | COC(=O)C[C@@H]1N=C(c2ccc(Cl)cc2)c2c(sc(C)c2C)-n2c(C)nnc21 | 0.1 µM (active)
50 | Cn1ncc2cc(-c3cnc(N)c(Cl)c3N3CCC4(CCNC4=O)CC3)ccc21 | 5.7 µM (active)
51 | COc1cc(-c2nn(CCN3CCC(N(C)C)CC3)c3ncnc(N)c23)ccc1NC(=O)OC(C)(C)C | 2.1 µM (active)
52 | CC(C)(O)CNc1ncc(-c2ccnc(Nc3ccnc(Cl)c3)n2)c(CC2CC2)n1 | 4 µM (active)
53 | O=C(Nc1cccc(Nc2ncc(Br)c(NCCc3c[nH]cn3)n2)c1)N1CCCC1 | 3.3 µM (active)
54 | O=C(NC1(c2ccccc2)CC1)c1c(CN2CCC(N3CCCCC3)CC2)c(-c2cccc(C(F)(F)F)c2)nc2cc(Br)ccc12 | 2.6 µM (active)
55 | CCOC(=O)c1cnn(-c2ccc(NC(=O)C(Cl)=C(Cl)Cl)cc2)c1C(F)(F)F | 1 µM (active)
56 | COc1cc(N2CCC(N)CC2)ccc1Nc1ncc(Cl)c(-c2c[nH]c3ccccc23)n1 | 4.2 µM (active)
57 | Cc1nc(Nc2cnn(C3CCNCC3)c2)nc2c1N(C)C(=O)c1cc3ccccc3cc1N2C | 4.5 µM (active)
58 | COCCOc1ccc2c(c1)ncn2-c1ccc2cccc(N3CCC(N)CC3)c2n1 | 8.2 µM (active)
59 | CC[S+]([O-])c1nc(-c2cccc(OCc3ccccc3)c2)cc(C(F)(F)F)n1 (stereo not given) | 5.3 µM (active)
60 | COCCCN(C(=O)CCl)c1nc(-c2ccc(OC)cc2)cs1 | 1.5 µM (active)
61 | CCCc1cc(C)[nH]c(=O)c1CNC(=O)c1cc(-c2ccc(N3CCN(C)CC3)nc2)nc2c1cnn2C(C)C | 7.5 µM (active)
62 | COc1ccc(N(C(=O)Nc2c(C)cccc2C)c2cc(Nc3ccc(N4CCN(C)CC4)cc3)ncn2)c(OC)c1 | 6.1 µM (active)
63 | CC(C)Oc1cc(Nc2nc(N[C@@H](C)c3ccc(F)cn3)ncc2Cl)n[nH]1 | 2.6 µM (active)
64 | Cc1cc(CS(=O)(=O)c2ccccc2)cc(OCc2ccc(CN3CCC[C@@H]3CO)cc2)c1 | 7.9 µM (active)
65 | O=C(Nc1ccccc1-c1cn2c(CN3CCNCC3)csc2n1)c1cnc2ccccc2n1 | 1.6 µM (active)
66 | CNC(=O)c1c(F)cccc1Nc1nc(Nc2cc3c(cc2OC)CCN3C(=O)CN(C)C)nc2[nH]ccc12 | 3.6 µM (active)

Row | Compound | CC50
67 | Cc1ccc2nc(NCCN)c3ncc(C)n3c2c1 | 1.9 µM (active)
68 | COc1ccc2c(c1)C(C(=O)N(Cc1ccc(N(C)C)cc1)c1ccc(C(C)C)cc1)CCC2 (stereo not given) | 23.2 µM (inactive)
69 | N#Cc1ccc(CNC(=O)CCCCCN2CCN(c3ccccc3-c3ccccc3)CC2)cc1 | 12.3 µM (active)
70 | O=C1NCCc2[nH]c(-c3ccncc3)cc21 | 0.9 µM (active)
71 | O=C(O)c1ccc2c(c1)nc(Nc1cccc(Cl)c1)c1ccncc12 | 5 µM (active)
72 | CC[C@@H](N)CNc1ccnc(-c2cc(-c3cnn(C)c3)ccc2O)n1 | 1.2 µM (active)
73 | CN(C)CCN(C)CCc1ccc(Cl)c(Cl)c1 | 15.3 µM (inactive)
74 | CC(C)(C)NC(=O)[C@@H]1C[C@@H]2CCCC[C@@H]2CN1CC(O)[C@H](Cc1ccccc1)NC(=O)[C@@H](CC(N)=O)NC(=O)c1ccc2ccccc2n1 (stereo not given in full) | 15.7 µM (inactive)
75 | Cc1c(O)cccc1C(=O)NC(CSc1ccccc1)C(O)CN1CC2CCCCC2CC1C(=O)NC(C)(C)C (stereo not given) | 11.3 µM (active)
76 | CC(C)c1cnn2c(NCc3ccccc3)cc(NC[C@H]3CCNC[C@@H]3O)nc12 | 0.8 µM (active)
77 | CN(C)C[C@@H]1CCn2cc(c3ccccc32)C2=C(C(=O)NC2=O)c2cn(c3ccccc23)CCO1 | 3 µM (active)
78 | Cc1c(NC(=O)OC[C@@H]2COCCN2)cn2ncnc(Nc3ccc4c(cnn4Cc4cccc(F)c4)c3)c12 | 9 µM (active)
79 | CCCc1ccc(-c2ccc(N(C[C@@H](N)[C@@H](C)CC)C(=O)[C@@H]3C[C@H]3c3ccccn3)cc2)cc1 | 1.6 µM (active)
80 | CC(C)N(CCC(=O)c1ccc2ccccc2c1)Cc1ccccc1 | 12.9 µM (active)
81 | COc1ccc(-c2cc3nccn3c(Nc3ncccc3C(N)=O)n2)cc1OC | 1.1 µM (active)
82 | Cc1ccc([N+](=O)[O-])cc1S(=O)(=O)N(C)/N=C/c1cnc2ccc(Br)cn12 | < 0.1 µM (active)
83 | O=C(c1cccs1)c1no[n+]([O-])c1C(=O)c1cccs1 | 1.8 µM (active)
84 | Cc1cnc(Nc2ccc(F)cc2Cl)nc1-c1c[nH]c(C(=O)N[C@H](CO)c2cccc(Cl)c2)c1 | 0.7 µM (active)
85 | NS(=O)(=O)c1ccc(S(=O)(=O)Nc2cccc3c(Cl)c[nH]c23)cc1 | 13.6 µM (inactive)
